Data from article PMC9816242, “Human metabolism and excretion kinetics of benzotriazole UV stabilizer UV-327 after single oral administration” (Archives of Toxicology, 2022).

Tests used:
[1] = UV-327 and metabolites in whole blood of volunteers after single oral administration of UV-327; conditions: for share of the total amount of all analytes at the time point of maximum concentration: blood, UV-327 equivalents at cmax; for time after which mean blood level was below LOD / cmax (maximum blood level): whole blood; for time after which mean blood level was below LOD: single oral 0.3 mg/kg UV-327; for cmax (maximum blood level): single oral 0.3 mg/kg body weight UV-327, n = 3, mean ± SD
Protocol: (§1) The administered dose of UV-327 was calculated with respect to an adequate distance from the no observed adverse effect level (NOAEL) determined in toxicological studies. […] As a result, 0.3 mg of UV-327/kg body weight was administered to each participant.
(§2) For the determination of potential background exposure, one blood and one urine sample of each participant were collected prior to the oral administration of UV-327. 14–29 mg of UV-327 were weighed directly onto a small piece of bread with butter, which was then consumed by the volunteers. Samples of urine and blood were then collected up to 72 h post-application. The participants collected all urine voids in separate containers. The sampling times and volumes of each sample were recorded. The urine samples were aliquoted and stored at − 50 °C until analysis. 9 ml of blood were drawn from peripheral veins at 2 h, 4 h, 6 h, 8 h, 10 h, 24 h, 34 h, 48 h, and 72 h after exposure and collected in EDTA-Monovettes®. Additional blood samples were collected from one subject 14 h, 28 h, and 58 h after exposure. This study participant donated two blood samples at each point in time; one blood sample was centrifuged to obtain plasma samples. Both blood and plasma samples were stored at − 50 °C until analysis.
(§3) Whole blood samples were prepared, processed, and analyzed according to a previously published method (Fischer and Göen [2022]). Proteins and cellular components were precipitated by the addition of acetonitrile. After centrifugation, the supernatants were diluted with water and ammonium acetate buffer. For analyte extraction, chloroform was added. The extracts were evaporated to dryness, followed by the addition of toluene and derivatization with both BSA/TCMS and TSIM. LODs ranged from 0.02 to 0.36 µg/l. […] Mean relative recovery rates ranged from 91% to 118%.
(§4) The blood samples of one study participant were additionally processed with the addition of β-glucuronidase/arylsulfatase from H. pomatia and incubation at 37 °C for 16 h to examine potential conjugation of UV-327 and its metabolites to glucuronide/sulfate.
(§5) A TRACE 1310 gas-chromatographic system equipped with a TriPlus RSH autosampler and a split/splitless injector was used for the analysis of the urine, blood, and plasma samples. The gas-chromatographic system was coupled to a TSQ 9000 triple–quadrupole mass spectrometer equipped with an advanced electron ionization (AEI) source (Thermo Fisher Scientific Inc., Waltham, USA). Chromatographic separation was performed on a (5% phenyl)-methylpolysiloxane low-bleed capillary column (HP-5msUI, 60 m × 250 µm × 0.25 µm, Agilent Technologies, Inc., Santa Clara, USA) at a constant flow rate of 1 ml/min using helium as a carrier gas. Total analysis time was 44 min. The GC–MS/MS equipment and parameter-specific settings were used as described in earlier publications for the analysis of urine (Fischer and Göen [2021]) and blood samples (Fischer and Göen [2022]). Plasma samples were analyzed using the same parameter-specific settings as for the analysis of blood samples.
(§6) Mean concentration–time curves in blood were obtained by plotting the mean blood levels against time. The elimination half-lives (t1/2) were calculated as described above. […] For this purpose, UV-327 equivalents (as percentages) were calculated as follows: ∑i=0ncmax/M×MUV-327×100

clinical [2] = conditions: for form present in urine (conjugated/unconjugated): urine processed with and without enzymatic hydrolysis; for relative urinary share of the amount recovered within 72 h: % of the dose recovered in urine within 72 h; for t1/2 (elimination half-life, renal excretion): from mean excretion curves
Protocol: Enzymatic hydrolysis was performed at 37 °C for 16 h using β-glucuronidase/arylsulfatase from H. pomatia. The analytes and internal standards were extracted by dispersive liquid–liquid microextraction (DLLME) with isopropanol and chloroform. […] The urinary creatinine content was determined photometrically by the Jaffé’s method (Larsen [1972]).
Renal excretion rates (RE, in µg/h) of each analyte at a certain point in time were calculated by the following equation: RE=ci×vi/ti-ti-1
where ci (in µg/l) is the concentration of UV-327 or its metabolites in the urine sample i, vi (in l) is the volume of the respective urine sample, ti (in h) is the elapsed time value of the sampling, and ti−1 (in h) is the elapsed time value of the previous sampling.
Renal excretion kinetics of UV-327 and its metabolites were plotted as temporal progressions of the renal excretion rates RE at the midpoint of the respective sampling periods (ti,m in h), which were calculated as follows: ti,m=ti-1+ti-ti-1/2
Excretion curves were prepared for each study participant and each analyte by plotting the current excretion rates against the average time of the sampling period. Mean excretion curves were then obtained by averaging the closest sampling time points and the corresponding renal excretion rates for all study participants (mean ± standard deviation (SD)). The slopes (kel, elimination rate constant) of the ln-transformed mean excretion curves were used to calculate the elimination half-lives (t1/2) as follows: t1/2=ln(2)/kel
By summing the molar excreted amounts of UV-327 and its metabolites, the cumulative excreted amount of each analyte (in µmol) was calculated for each study participant: ∑i=0nci×vi/M
Furthermore, urinary excretion factors (FUE) as UV-327 dose equivalents (as percentages) were calculated to express the total excretion of UV-327 and its metabolites in urine after 24 h, 48 h, and 72 h: FUE=CEi/MD×100
CEi is the amount of the respective analyte excreted after 24 h, 48 h, and 72 h (in µmol) and MD is the ingested amount of UV-327 (in µmol).
The shares of conjugation of UV-327 and its metabolites were determined by correlation of the urinary excretion rates obtained with and without the performance of enzymatic hydrolysis. The slope of the linear fit describes the percentage of the unconjugated form of the respective analyte.

[3] = UV-327 and metabolites in plasma of one volunteer after single oral administration of UV-327; conditions: n = 1; AUC plasma / AUC blood per method
Protocol: (§7) For the determination of potential background exposure, one blood and one urine sample of each participant were collected prior to the oral administration of UV-327. 14–29 mg of UV-327 were weighed directly onto a small piece of bread with butter, which was then consumed by the volunteers. Samples of urine and blood were then collected up to 72 h post-application. The participants collected all urine voids in separate containers. The sampling times and volumes of each sample were recorded. The urine samples were aliquoted and stored at − 50 °C until analysis. 9 ml of blood were drawn from peripheral veins at 2 h, 4 h, 6 h, 8 h, 10 h, 24 h, 34 h, 48 h, and 72 h after exposure and collected in EDTA-Monovettes®. […] Both blood and plasma samples were stored at − 50 °C until analysis.
(§8) Stock solutions of each analyte and internal standard (200 mg/l) were prepared in acetone. For calibration, an analyte spiking solution was prepared in a mixture of acetonitrile and aqueous 0.9% NaCl solution (v/v, 1:1), which contained 500 µg/l of each metabolite. For the determination of UV-327, two analyte spiking solutions were prepared, containing 2 mg/l or 40 mg/l of UV-327 in a mixture of acetonitrile and 0.9% NaCl solution (v/v, 1:1). The internal standard spiking solution contained 20 mg/l of D20-UV-327 and 1 mg/l each of D6-UV-327-4-mcx, D6-UV-327-4-mOH, D12-UV-327-4 + 6-diOH, and D6-UV-327-4-mOH-6-mcx. For derivatization, a solution containing 5% (v/v) TSIM in toluene was freshly prepared for each analytical run. Calibration standards were prepared by spiking human plasma with various volumes of the analyte spiking solutions. An eight-point calibration curve in the range of 0.5–25 µg/l was applied for the determination of the metabolites, except for UV-327-4-mOH-6-mcx, for which the calibration range was set to 2–100 µg/l due to higher limits of detection and quantitation. For the determination of UV-327, a nine-point calibration curve in the range of 10–2000 µg/l was applied. A reagent blank sample, containing water instead of plasma, was included in each analytical run. […]

[4] = set-up: method as in Sommer et al. [2020]; conditions: oral administration, ref Sommer et al. [2020]; cited from earlier work
rats [5] = conditions: ref Ema et al. [2006]; cited from earlier work
[6] = in vitro; ref Fischer et al. [2020]; cited from earlier work
clinical [7] = conditions: both, human, whole blood, po, 0.3 mg/kg
Protocol: as §1, §2, §3, §4, §5, §6

human androgen receptor = tested on: human androgen receptor; set-up: method as in Fent et al. [2014]; Sakuragi et al. [2021]; conditions: ref Fent et al. [2014]; Sakuragi et al. [2021]; cited from earlier work
rats [8] = conditions: ref Ema et al. [2008]; cited from earlier work
[9] = set-up: method as in Cantwell et al. [2015]; conditions: ref Cantwell et al. [2015]; cited from earlier work
human serum albumin = tested on: human serum albumin; set-up: method as in Zhuang et al. [2016]; conditions: ref Zhuang et al. [2016]; cited from earlier work
beagle dogs = conditions: 90-day feeding study, ref CIBA AG [1970]; cited from earlier work
human estrogen receptor = tested on: human estrogen receptor; set-up: method as in Fent et al. [2014]; Sakuragi et al. [2021]; conditions: ref Fent et al. [2014]; Sakuragi et al. [2021]; cited from earlier work
rats [10] = conditions: especially male, ref Ema et al. [2008]; cited from earlier work
clinical [11] = conditions: human, plasma, po, 0.3 mg/kg
Protocol: as §7, §8

[12] = tested on: thyroid hormone receptors; set-up: method as in Nagayoshi et al. [2015]; conditions: ref Nagayoshi et al. [2015]; cited from earlier work
[13] = in vivo, po; cited from earlier work
[14] = urine of one participant, with vs without enzymatic hydrolysis
[15] = urine up to 72 h, n = 3, mean ± SD
[16] = both, human, in vivo, po, 0.3 mg/kg

Question: Which detection in blood ([1]; blood samples up to 72 h post-exposure) does the source give for “2-(5-chloro-benzotriazol-2-yl)-4,6-di-(1-hydroxy-2-methylpropyl)phenol [UV-327-4 + 6-diOH]” here?
Answer: Its detection in blood is “not detected in blood”.

Question: And the “FUE after 24 h (urinary excretion factor)” value (from here on “FUE after 24 h”) (clinical [2]; human, in vivo)?
Answer: Its value is 0.0104 ± 0.0022%.

Question: And the “FUE after 48 h (urinary excretion factor)” value (“FUE after 48 h” for short) (clinical [2]; human, in vivo)?
Answer: The value was 0.0156 ± 0.0027%.

Question: And the “FUE after 72 h (urinary excretion factor)” value (“FUE after 72 h” for short) (clinical [2]; human, in vivo)?
Answer: Its value is 0.018%.

Question: And the “REmax (maximum renal excretion rate)” value (clinical [2]; human, in vivo, po, 0.3 mg/kg)?
Answer: Its value is 0.214 ± 0.058 µg/h.

Question: What about the “tmax (time point of maximum renal excretion rate)” value (clinical [2]; human, in vivo, po, 0.3 mg/kg) of the same molecule?
Answer: The value was 10.6 ± 0.08 h.

Question: And the Share of conjugation (clinical [2]; [14])?
Answer: Its Share of conjugation is 100%.

Question: What about the “form present in urine (conjugated/unconjugated)” value (clinical [2]) of the same molecule?
Answer: The value was “only present in their conjugated forms”.

Question: And the Cumulative excreted amount (clinical [2]; [15])?
Answer: Its Cumulative excreted amount is 0.0121 ± 0.0051 µmol.

Question: And the “FUE after 72 h” value (clinical [2]; urine, % of ingested UV-327 dose, 72 h, n = 3, mean ± SD)?
Answer: The value was 0.0183 ± 0.0030%.

Question: What about the “relative urinary share of the amount recovered within 72 h” value (“relative urinary share” for short) (clinical [2]; urine) of the same molecule?
Answer: Its value is 64.5%.

Question: And the “t1/2 (elimination half-life, renal excretion)” value (clinical [2]; urine, n = 3)?
Answer: The value was 33.0 h.

Question: With “2-(5-chloro-benzotriazol-2-yl)-4-(1-hydroxy-2-methylpropyl)-6-(tert-butyl)phenol [UV-327-4-mOH]” as the molecule, how does the “share of the total amount of all analytes at the time point of maximum concentration” value [1] read?
Answer: Its value is 0.04%.

Question: And the “time after which mean blood level was below LOD” value [1]?
Answer: The value was 72 h.

Question: And the “cmax (maximum blood level)” value [1]?
Answer: Its value is 0.26 ± 0.10 µg/L.

Question: And the “FUE after 24 h” value (clinical [2]; human, in vivo)?
Answer: The value was 0.0016 ± 0.0004%.

Question: What about the “FUE after 48 h” value (clinical [2]; human, in vivo) of the same molecule?
Answer: Its value is 0.0022 ± 0.0007%.

Question: What about the “FUE after 72 h” value (clinical [2]; human, in vivo) of the same molecule?
Answer: The value was 0.0026 ± 0.0011%.

Question: And the “REmax (maximum renal excretion rate)” value (clinical [2]; human, in vivo, po, 0.3 mg/kg)?
Answer: The value was 0.032 ± 0.012 µg/h.

Question: And the “tmax (time point of maximum renal excretion rate)” value (clinical [2]; human, in vivo, po, 0.3 mg/kg)?
Answer: Its value is 13.5 ± 0.05 h.

Question: And the Share of conjugation (clinical [2]; [14])?
Answer: The Share of conjugation was 100%.

Question: What about the “form present in urine (conjugated/unconjugated)” value (clinical [2]) of the same molecule?
Answer: The value was “only present in their conjugated forms”.

Question: What about the Cumulative excreted amount (clinical [2]; [15]) of the same molecule?
Answer: The Cumulative excreted amount was 0.0016 ± 0.0009 µmol.

Question: What about the “relative urinary share” value (clinical [2]; urine) of the same molecule?
Answer: Its value is 9.2%.

Question: What about the “t1/2 (elimination half-life, renal excretion)” value (clinical [2]; urine, n = 3) of the same molecule?
Answer: The value was 26.7 h.

Question: And the “plasma to blood ratio” value [3]?
Answer: The value was 1.5 to 1.6.

Question: With “2-(5-chloro-benzotriazol-2-yl)-6-(1-hydroxy-2-methylpropyl)-4-(tert-butyl)phenol [UV-327-6-mOH]” as the molecule, how does the “share of the total amount of all analytes at the time point of maximum concentration” value [1] read?
Answer: Its value is 0.04%.

Question: What about the “time after which mean blood level was below LOD” value [1] of the same molecule?
Answer: The value was 48 h.

Question: What about the “cmax (maximum blood level)” value [1] of the same molecule?
Answer: Its value is 0.27 ± 0.10 µg/L.

Question: What about the “FUE after 24 h” value (clinical [2]; human, in vivo) of the same molecule?
Answer: The value was 0.0034 ± 0.0006%.

Question: What about the “FUE after 48 h” value (clinical [2]; human, in vivo) of the same molecule?
Answer: The value was 0.0046 ± 0.0010%.

Question: What about the “FUE after 72 h” value (clinical [2]; human, in vivo) of the same molecule?
Answer: Its value is 0.0049 ± 0.0013%.

Question: And the “REmax (maximum renal excretion rate)” value (clinical [2]; human, in vivo, po, 0.3 mg/kg)?
Answer: The value was 0.068 ± 0.06 µg/h.

Question: And the “tmax (time point of maximum renal excretion rate)” value (clinical [2]; human, in vivo, po, 0.3 mg/kg)?
Answer: The value was 8.7 ± 0.21 h.

Question: What about the Share of conjugation (clinical [2]; [14]) of the same molecule?
Answer: The Share of conjugation was 100%.

Question: And the “form present in urine (conjugated/unconjugated)” value (clinical [2])?
Answer: The value was “only present in their conjugated forms”.

Question: And the Cumulative excreted amount (clinical [2]; [15])?
Answer: Its Cumulative excreted amount is 0.0030 ± 0.0011 µmol.

Question: And the “relative urinary share” value (clinical [2]; urine)?
Answer: Its value is 17.2%.

Question: And the “t1/2 (elimination half-life, renal excretion)” value (clinical [2]; urine, n = 3)?
Answer: The value was 13.9 h.

Question: What about the “plasma to blood ratio” value [3] of the same molecule?
Answer: Its value is 1.5 to 1.6.

Question: With CN(C)CCc1ccc(O)cc1 [N,N-dimethyltyramine] as the molecule, how does the “time to plasma peak level” value [4] read?
Answer: The value was 30 to 90 min.

Question: Which results are given for CC(C)(C)c1cc(-n2nc3ccc(Cl)cc3n2)c(O)c(C(C)(C)C)c1 [UV-327, 2-(5-chloro-benzotriazol-2-yl)-4,6-di-(tert-butyl)phenol]?
Answer: conjugation in blood (with vs without enzymatic hydrolysis) ([1]; blood of one participant, β-glucuronidase/arylsulfatase): not present as conjugates in blood; share of the total amount of all analytes at the time point of maximum concentration [1]: 99.9%; oral LD50 (rats [5]): > 5000 mg/kg body weight; extent of metabolism in human liver microsomes [6]: only moderately metabolized; Cmax (clinical [7]): 632 ± 114 ng/mL; Tmax (clinical [7]): 6 h; concentration at 24 h (clinical [7]): 103 ± 24 ng/mL; concentration at 72 h (clinical [7]): 27 ± 5 ng/mL; Cumulative excreted amount (clinical [2]; both, human, in vivo): 0.0016 ± 0.0007 µmol; FUE after 24 h (urinary excretion factor) (clinical [2]; both, human, in vivo): 0.0015 ± 0.0004%; FUE after 48 h (urinary excretion factor) (clinical [2]; both, human, in vivo): 0.0023 ± 0.0007%; FUE after 72 h (urinary excretion factor) (clinical [2]; both, human, in vivo): 0.0026 ± 0.0009%; half-life (clinical [2]; both, human, in vivo): 18.2 h; share of the total 72 h urinary amount (UV-327 and its metabolites) excreted within 24 h (clinical [2]; both, human, in vivo): 61%; share of the total 72 h urinary amount (UV-327 and its metabolites) excreted within 48 h (clinical [2]; both, human, in vivo): 88%; REmax (maximum renal excretion rate) (clinical [2]; [16]): 0.026 ± 0.007 µg/h; Tmax (clinical [2]; [16]): 13.5 ± 0.05 h; Share of conjugation (clinical [2]; human, in vivo): 16%; unconjugated form in urine (clinical [2]; human, in vivo): 84%; relative urinary share of the amount recovered within 72 h (clinical [2]; urine): 9.0%; activity against human androgen receptor (human androgen receptor): no activity; reproductive toxicity (rats [8]): did not cause reproductive; Log Kow [9]: 6.75; binding to human serum albumin (human serum albumin): found to bind to human serum albumin by forming hydrogen bonds; NOAEL (beagle dogs): 30 mg/kg/day; activity against human estrogen receptor (human estrogen receptor): no activity; liver findings after repeated oral administration (rats [10]): increased liver weights, histopathological changes in hepatic tissue, and alterations in liver-specific blood parameters; Tmax (clinical [11]): 6 h; activity against thyroid hormone receptors [12]: no activity

Question: For CCCOC(=O)c1ccc(O)cc1 [propyl paraben], which “time to maximum serum level” value [13] is on record?
Answer: The value was 1.4 ± 1.1 h.
